For eight compounds, TGI results are on record in PubChem BioAssay (NCI).

Test systems include RXF 393 renal; MDA-MB-231 breast; UACC-62 melanoma; MDA-N; T-47D breast; SK-MEL-5 melanoma; OVCAR-5 ovarian; MOLT-4 leukemia; BT-549 breast; HOP-92 NSCLC; SF-295 CNS; OVCAR-8 ovarian; SK-OV-3 ovarian; SW-620 colon; EKVX NSCLC.
What all share (assay): DTP human tumour cell line panel, 48 h

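Each compound was tested at five concentrations against cells in 96-well plates for 48 hours. TGI: total growth inhibition.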

In the case of `Cc1nn(-c2ccccc2)c2nc3c(c(C)nn3-c3ccccc3)c(-c3ccccc3Br)c12`, the TGI in the test on RXF 393 renal, in the test with MDA-MB-231 breast, with UACC-62 melanoma, in the test on MDA-N, in the test with T-47D breast and with SK-MEL-5 melanoma was over 100 µM in each case. Further, the TGI in the test with OVCAR-5 ovarian, in the test on MOLT-4 leukemia, with BT-549 breast, in the test on HOP-92 NSCLC, with SF-295 CNS and in the test on OVCAR-8 ovarian was over 100 µM each time. The TGI with SK-OV-3 ovarian, with SW-620 colon and in the test on EKVX NSCLC was over 100 µM throughout.
Take `CCC1=NC(N/N=C/c2ccccc2O)=N/C1=C\c1ccccc1O`: the TGI in the test on RXF 393 renal is over 73.4 µM; in the test on MDA-MB-231 breast, over 100 µM; with UACC-62 melanoma it was 48.4 µM; with MDA-N it was over 100 µM; in the test with T-47D breast, over 76.5 µM; in the test with SK-MEL-5 melanoma, over 100 µM. For the same compound, the TGI in the test with OVCAR-5 ovarian was over 100 µM; in the test on MOLT-4 leukemia, over 61.5 µM; in the test on BT-549 breast, over 53.7 µM; in the test with HOP-92 NSCLC, over 84 µM; in the test on SF-295 CNS it was over 100 µM; in the test on OVCAR-8 ovarian, over 69.2 µM. Further, the TGI in the test on SK-OV-3 ovarian is 76.2 µM; in the test on SW-620 colon, over 100 µM; in the test with EKVX NSCLC, over 100 µM.
In the case of `COc1ccc2c(c1)-c1c(c3ccccc3n1CCN1CCCCC1)CC2`, the TGI in the test with RXF 393 renal is over 100 µM; in the test with MDA-MB-231 breast, 31.1 µM; in the test on UACC-62 melanoma, 36.5 µM; in the test on MDA-N, 67.5 µM; in the test on T-47D breast, over 94.4 µM; in the test on SK-MEL-5 melanoma, 30.1 µM. Besides, the TGI in the test with OVCAR-5 ovarian was over 57.2 µM; in the test on MOLT-4 leukemia it was 47.4 µM; in the test with BT-549 breast it was over 71 µM; with HOP-92 NSCLC, 54.4 µM; in the test with SF-295 CNS it was 34.4 µM; with OVCAR-8 ovarian it was over 55.3 µM. In addition, the TGI worked out at 53 µM in the test on SK-OV-3 ovarian, 81.2 µM in the test with SW-620 colon and 70.5 µM in the test with EKVX NSCLC.
For `CC(C)[Si](OCC/C=C/C1CCC(=O)C1C(O)C1CCCCC1)(C(C)C)C(C)C` (stereo not given), the TGI amounted to 26.4 µM with RXF 393 renal; 36.3 µM in the test on MDA-MB-231 breast; 29.7 µM in the test with UACC-62 melanoma; 36.4 µM in the test on MDA-N; 33.7 µM in the test with T-47D breast; 29 µM in the test with SK-MEL-5 melanoma. The TGI in the test on OVCAR-5 ovarian was found to be 33.4 µM; with MOLT-4 leukemia, 30 µM; in the test with BT-549 breast, 34.1 µM; with HOP-92 NSCLC it was 27.7 µM; in the test with SF-295 CNS, 31.8 µM; in the test with OVCAR-8 ovarian, 28.8 µM. Further, the values for the TGI in the test with SK-OV-3 ovarian, with SW-620 colon and in the test with EKVX NSCLC were 30.3 µM, 31.3 µM and 28.9 µM, respectively.
Regarding `COC(=O)C(Cc1ccccc1)C(=O)NC(CNC(=O)OCc1ccccc1)C(=O)OCc1ccccc1` (stereo not given), the TGI with RXF 393 renal was 67.3 µM; with MDA-MB-231 breast it was 50.3 µM; in the test with UACC-62 melanoma, 49.3 µM; in the test on MDA-N, 58 µM; with T-47D breast, over 100 µM; with SK-MEL-5 melanoma it was 34 µM. Moreover, the TGI in the test with OVCAR-5 ovarian was over 100 µM; in the test with MOLT-4 leukemia, 43.7 µM; in the test with BT-549 breast, over 100 µM; in the test on HOP-92 NSCLC, over 72.3 µM; in the test with SF-295 CNS, over 100 µM; in the test with OVCAR-8 ovarian, over 100 µM. The TGI with SK-OV-3 ovarian, in the test with SW-620 colon and in the test with EKVX NSCLC was over 100 µM throughout.
Take `CNC(=O)C(C)NC(=O)C(Cc1ccccc1)NC(=O)OC(C)(C)C` (stereo not given): the TGI with RXF 393 renal, in the test on MDA-MB-231 breast, with UACC-62 melanoma, in the test on MDA-N, in the test on T-47D breast and in the test on SK-MEL-5 melanoma was over 100 µM each time. Also, the TGI with OVCAR-5 ovarian, in the test on MOLT-4 leukemia, in the test on BT-549 breast, with HOP-92 NSCLC, in the test with SF-295 CNS and in the test on OVCAR-8 ovarian was over 100 µM throughout. Also, the TGI in the test with SK-OV-3 ovarian, with SW-620 colon and in the test on EKVX NSCLC was over 100 µM each time.
In the case of `CCCOc1ccc(/C=C/C2=[N+](CCO)CCO2)cc1`, the TGI in the test with RXF 393 renal, with MDA-MB-231 breast, in the test on UACC-62 melanoma, in the test with MDA-N, in the test with T-47D breast and in the test with SK-MEL-5 melanoma was over 100 µM in each case. For the same compound, the TGI in the test with OVCAR-5 ovarian, in the test with MOLT-4 leukemia, with BT-549 breast, with HOP-92 NSCLC, with SF-295 CNS and in the test on OVCAR-8 ovarian was over 100 µM in each case. The TGI with SK-OV-3 ovarian, in the test on SW-620 colon and with EKVX NSCLC was over 100 µM in each case.
With `COc1c(C(=O)O)cccc1-c1cccc(C(=O)NCCN(CCNC(=O)c2cccc(-c3cccc(C(=O)O)c3OC)c2OC)CCNC(=O)c2cccc(-c3cccc(C(=O)O)c3OC)c2OC)c1OC`, the TGI was over 100 µM in the test on RXF 393 renal; over 100 µM in the test with MDA-MB-231 breast; 89.7 µM with UACC-62 melanoma; 23.8 µM in the test with MDA-N; over 100 µM with T-47D breast; 37.6 µM in the test on SK-MEL-5 melanoma. Also, the TGI in the test with OVCAR-5 ovarian, with MOLT-4 leukemia, in the test on BT-549 breast, in the test on HOP-92 NSCLC, in the test on SF-295 CNS and in the test with OVCAR-8 ovarian was over 100 µM in each case. Also, the TGI in the test with SK-OV-3 ovarian, with SW-620 colon and with EKVX NSCLC was over 100 µM each time.
